Several values for one entry are separate records, joined by “and”; a condition that tells them apart may be missing. Equal values may be shown once.
What was measured:
[1] = molecular target: Histone deacetylase; assay: Inhibition of histone deacetylase in human HeLa cells assessed as induction of histone H3 hyperacetylation; type: cell-based
[2] = test system: HCT-116; assay: Cytotoxicity against human HCT116 cells; type: functional, cell-based
[3] = test system: HCT-116; assay: Antitumor activity against human HCT116 cells xenografted in nude mouse at 50 mg/kg, po administered once a day for 14 days relative to control; type: functional

Row | SMILES | EC50 [1] | EC50 [2] [µM] | T/C [3] [%]
1 | CC(=O)SCC(=O)c1ccc(NS(=O)(=O)c2ccc(C)cc2)cc1 | 0.1 µM | 6.5 | 
2 | CC(=O)SCC(=O)c1ccc(NS(=O)(=O)c2ccc3c(c2)ncn3C)cc1 | 0.079 µM and 0.038 µM | 1.8 | 
3 | CC(=O)SCC(=O)c1ccc(C(=O)Nc2ccc(OC(F)(F)F)cc2)cc1 | 67.1 µM |  | 
4 | COc1ccc(S(=O)(=O)Nc2ccc(C(=O)CSC(C)=O)cc2)cc1OC | 0.28 µM | 3.2 | 
5 | CC(=O)SCC(=O)c1ccc(NS(=O)(=O)c2ccc3c(c2)NCC3)cc1 | 0.047 µM | 3.3 | 
6 | CC(=O)SCC(=O)c1ccc(NS(=O)(=O)c2ccc3c(c2)N(C(C)=O)CC3)cc1 | 0.091 µM | 4.6 | 
7 | CC(=O)SCC(=O)c1ccc(NS(=O)(=O)c2ccc3c(c2)ncn3C)nc1 | 0.24 µM | 4.9 | 
8 | CC(=O)SCC(=O)c1ccc(NS(=O)(=O)c2ccc3c(c2)CCO3)nc1 | 0.095 µM | 6.4 | 
9 | CC(=O)SCC(=O)c1ccc(NS(=O)(=O)c2ccc3ccccc3c2)cc1 | 0.029 µM | 2.6 | 
10 | CC(=O)SCC(=O)c1ccc(NS(=O)(=O)c2ccc3c(c2)CCN3)cc1 | 0.16 µM | 1.1 | 
11 | CC(=O)SCC(=O)c1ccc(NS(=O)(=O)c2ccc3c(c2)OCO3)nc1 | 0.36 µM | 5.5 | 
12 | CC(=O)SCC(=O)c1ccc(NS(=O)(=O)c2ccc3c(c2)OCO3)cc1 | 0.088 µM | 1.4 | 
13 | CC(=O)SCC(=O)c1ccc(NS(=O)(=O)c2ccccc2)nc1 | 0.15 µM | 5.3 | 
14 | CC(=O)SCC(=O)c1ccc(NS(=O)(=O)c2ccc3c(c2)CCO3)cc1 | 0.082 µM | 3.2 | 
15 | CC(=O)SCC(=O)c1ccc(NS(=O)(=O)c2ccc3ccccc3c2)nc1 | 0.042 µM | 4.9 | 
16 | CC(=O)SCC(=O)c1ccc(NS(=O)(=O)c2ccc3cc[nH]c3c2)cc1 | 0.044 µM | 0.6 | 
17 | CC(=O)SCC(=O)c1ccc(N(C)S(=O)(=O)c2ccc(OC(F)(F)F)cc2)cc1 | 4.3 µM |  | 
18 | CC(=O)SCC(=O)c1ccc(NS(=O)(=O)c2ccc(Cl)c(Cl)c2)cc1 | 0.42 µM |  | 

Row | SMILES | EC50 [1] | EC50 [2] [µM] | T/C [3] [%]
19 | CC(=O)SCC(=O)c1ccc(NS(=O)(=O)c2cccc(F)c2)cc1 | 0.46 µM |  | 
20 | CC(=O)SCC(=O)c1ccc(NS(=O)(=O)c2ccc(Cl)cc2)cc1 | 0.28 µM | 30.8 | 
21 | CC(=O)SCC(=O)c1ccc(NS(=O)(=O)c2cccc(OC(F)(F)F)c2)cc1 | 0.79 µM |  | 
22 | CC(=O)SCC(=O)c1ccc(NS(=O)(=O)c2ccc(OC(F)(F)F)cc2)cc1 | 0.2 µM | 8.8 | 
23 | COc1ccc(S(=O)(=O)Nc2ccc(C(=O)CSC(C)=O)cc2)cc1 | 0.05 µM | 0.5 | 
24 | CC(=O)SCC(=O)c1ccc(NS(=O)(=O)c2ccc(C(F)(F)F)cc2)cc1 | 2.1 µM |  | 
25 | CC(=O)SCC(=O)c1ccc(S(=O)(=O)Nc2ccc(OC(F)(F)F)cc2)cc1 | 1 µM | 16.1 | 
26 | CC(=O)SCC(=O)c1ccc(NS(=O)(=O)c2ccccc2Cl)cc1 | 0.85 µM |  | 
27 | CC(=O)SCC(=O)c1ccc(NS(=O)(=O)c2cccc(Cl)c2)cc1 | 0.15 µM |  | 
28 | CC(=O)SCC(=O)c1ccc(NS(=O)(=O)c2ccc3c(c2)OCCN3C)cc1 | 0.1 µM | 2.6 | 
29 | CC(=O)SCC(=O)c1ccc(NS(=O)(=O)c2ccc3[nH]ccc3c2)cc1 | 0.059 µM | 1.5 | 
30 | CC(=O)SCC(=O)c1ccc(NS(=O)(=O)c2ccc3c(c2)OCCN3C)nc1 | 0.15 µM | 9.6 | 
31 | CC(=O)SCC(=O)c1ccc(NS(=O)(=O)c2ccc3c(c2)OCCO3)cc1 | 0.026 µM | 0.4 | 87
32 | CC(=O)SCC(=O)c1ccc(NCc2ccc(OC(F)(F)F)cc2)cc1 | 1.5 µM |  | 
33 | CC(=O)SCC(=O)c1ccc(NS(=O)(=O)c2ccccc2)cc1 | 0.33 µM | 15.4 | 
34 | COc1cccc(S(=O)(=O)Nc2ccc(C(=O)CSC(C)=O)cc2)c1 | 0.17 µM | 2.6 | 
35 | CC(=O)SCC(=O)c1ccc(NC(=O)Nc2ccc(OC(F)(F)F)cc2)cc1 | 11.2 µM |  | 
36 | CC(=O)SCC(=O)c1ccc(NS(=O)(=O)c2ccc(F)cc2)cc1 | 0.95 µM |  | 
